From US11173151B2, “Substituted triazole derivatives and uses thereof” (BAYER AKTIENGESELLSCHAFT, priority 2017, dated 2021) come the findings set out here.

Experiment [1] addresses T1, human V1a receptor (Homo sapiens, UniProt P37288).
T1 construct: expressed in transfected cells; host or cells: CHO K1 (ATCC), also stably transfected with a modified aequorin
Kind of experiment: Cellular in vitro assay for determining vasopressin receptor activity, V1a receptor cell line (CHO, aequorin luminescence). It counts as cell-based. The settings on record: for IC50: CHO cell line transfected with human V1a receptor, [Arg]-vasopressin at EC50 concentration, read-out: IC50 hV1a; for ratio IC50 hV2/hV1a: selectivity ratio IC50 hV2 / IC50 hV1a. In a few lines:
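CHO K1/aequorin cells, coelenterazine 5 μg/ml o/n; cpd 10 min; [Arg]-vasopressin at EC50; luminescence read immediately; IC50.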

In experiment [2] the target is T2, human V2 receptor (Homo sapiens, UniProt P30518).
T2 construct: expressed in transfected cells; host or cells: CHO K1 (ATCC) expressing firefly luciferase under a CRE-responsive promoter
T2 sequence (P30518 whole entry): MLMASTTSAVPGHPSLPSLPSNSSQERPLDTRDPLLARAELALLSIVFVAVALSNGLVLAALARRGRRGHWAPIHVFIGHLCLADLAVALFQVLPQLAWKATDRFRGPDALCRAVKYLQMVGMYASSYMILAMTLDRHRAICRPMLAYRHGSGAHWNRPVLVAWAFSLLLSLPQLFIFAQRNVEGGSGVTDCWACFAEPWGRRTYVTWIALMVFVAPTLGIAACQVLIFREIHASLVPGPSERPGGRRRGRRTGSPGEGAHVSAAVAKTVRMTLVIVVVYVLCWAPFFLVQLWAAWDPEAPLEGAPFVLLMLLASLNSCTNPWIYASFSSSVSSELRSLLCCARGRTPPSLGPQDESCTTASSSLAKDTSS
Kind of experiment: Cellular in vitro assay for determining vasopressin receptor activity, V2 receptor cell line (CHO, CRE-luciferase). As to conditions: CHO cell line transfected with human V2 receptor; [Arg8]-vasopressin at EC50 concentration, 3 hours; read-out: IC50 hV2. It counts as cell-based.

T1 sequence (P37288 whole entry): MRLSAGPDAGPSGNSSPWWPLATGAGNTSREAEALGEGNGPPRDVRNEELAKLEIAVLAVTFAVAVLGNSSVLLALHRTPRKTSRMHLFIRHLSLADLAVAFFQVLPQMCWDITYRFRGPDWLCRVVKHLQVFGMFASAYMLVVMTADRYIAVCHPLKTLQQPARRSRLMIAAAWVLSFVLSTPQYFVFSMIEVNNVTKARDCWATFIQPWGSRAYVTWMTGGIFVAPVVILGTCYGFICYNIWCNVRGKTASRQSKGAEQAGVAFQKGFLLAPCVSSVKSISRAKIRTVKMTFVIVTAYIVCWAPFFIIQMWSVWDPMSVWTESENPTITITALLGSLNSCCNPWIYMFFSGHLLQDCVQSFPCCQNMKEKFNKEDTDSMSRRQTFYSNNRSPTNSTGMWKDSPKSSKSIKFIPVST

As a reminder, the IC50 is the concentration at which inhibition is half-maximal. In the case of `CC1(C)CCCN(C(=O)c2ccccc2-n2cnc(Cn3nc(-c4ccc(Cl)cc4)n(C[C@H](O)C(F)(F)F)c3=O)n2)C1` [Example 327, 5-(4-Chlorophenyl)-2-[(1-{2-[(3,3-dimethylpiperidin-1-yl)carbonyl]phenyl}-1H-1,2,4-triazol-3-yl)methyl]-4-[(2S)-3,3,3-trifluoro-2-hydroxypropyl]-2,4-dihydro-3H-1,2,4-triazol-3-one], in experiment [1], the IC50 is 0.0044 µM and the “ratio IC50 hV2/hV1a” value amounted to 112.5. Also, the IC50 in experiment [2] turned out to be 0.495 µM.
As to `CN(C(=O)c1ccccc1-n1cnc(Cn2nc(-c3ccc(Cl)cc3)n(C[C@H](O)C(F)(F)F)c2=O)n1)C1CCCCC1` [Example 329, 2-[3-({3-(4-Chlorophenyl)-5-oxo-4-[(2S)-3,3,3-trifluoro-2-hydroxypropyl]-4,5-dihydro-1H-1,2,4-triazol-1-yl}methyl)-1H-1,2,4-triazol-1-yl]-N-cyclohexyl-N-methylbenzamide], in experiment [1], the IC50 worked out at 0.0111 µM and the “ratio IC50 hV2/hV1a” value is on record as 171.9. Also, the half-inhibitory concentration (IC50) in experiment [2] came out at 1.9 µM.
For `CN(Cc1ccco1)C(=O)c1ccccc1-n1cnc(Cn2nc(-c3ccc(Cl)cc3)n(C[C@H](O)C(F)(F)F)c2=O)n1` [Example 330, 2-[3-({3-(4-Chlorophenyl)-5-oxo-4-[(2S)-3,3,3-trifluoro-2-hydroxypropyl]-4,5-dihydro-1H-1,2,4-triazol-1-yl}methyl)-1H-1,2,4-triazol-1-yl]-N-(furan-2-ylmethyl)-N-methylbenzamide], in experiment [1], the 50% inhibitory concentration (IC50) turned out to be 0.00995 µM and the “ratio IC50 hV2/hV1a” value was found to be 135.7. Further, in experiment [2], the concentration for half-maximal inhibition (IC50) worked out at 1.35 µM.
On to `CN1CCCN(C(=O)c2ccccc2-n2cnc(Cn3nc(-c4ccc(Cl)cc4)n(C[C@H](O)C(F)(F)F)c3=O)n2)CC1` [Example 331, 5-(4-Chlorophenyl)-2-[(1-{2-[(4-methyl-1,4-diazepan-1-yl)carbonyl]phenyl}-1H-1,2,4-triazol-3-yl)methyl]-4-[(2S)-3,3,3-trifluoro-2-hydroxypropyl]-2,4-dihydro-3H-1,2,4-triazol-3-one], for which, in experiment [1], the concentration for half-maximal inhibition (IC50) was found to be 0.033 µM and the “ratio IC50 hV2/hV1a” value turned out to be 233.3. In addition, in experiment [2], the concentration for half-maximal inhibition (IC50) stood at 7.7 µM.
In the case of `CN(C)[C@H]1CCN(C(=O)c2ccccc2-n2cnc(Cn3nc(-c4ccc(Cl)cc4)n(C[C@H](O)C(F)(F)F)c3=O)n2)C1` [Example 332, 5-(4-Chlorophenyl)-2-{[1-(2-{[(3S)-3-(dimethylamino)pyrrolidin-1-yl]carbonyl}phenyl)-1H-1,2,4-triazol-3-yl]methyl}-4-[(2S)-3,3,3-trifluoro-2-hydroxypropyl]-2,4-dihydro-3H-1,2,4-triazol-3-one], in experiment [1], the IC50 is 0.0205 µM and the “ratio IC50 hV2/hV1a” value amounted to 509.8. Besides, in experiment [2], the half-inhibitory concentration (IC50) stood at 10.5 µM.
The like results for `CN(C)[C@@H]1CCN(C(=O)c2ccccc2-n2cnc(Cn3nc(-c4ccc(Cl)cc4)n(C[C@H](O)C(F)(F)F)c3=O)n2)C1` [Example 333, 5-(4-Chlorophenyl)-2-{[1-(2-{[(3R)-3-(dimethylamino)pyrrolidin-1-yl]carbonyl}phenyl)-1H-1,2,4-triazol-3-yl]methyl}-4-[(2S)-3,3,3-trifluoro-2-hydroxypropyl]-2,4-dihydro-3H-1,2,4-triazol-3-one] were, in that order, 0.00555 µM, 1612.6 and 8.95 µM.
Taken in the same sequence, the figures for `O=C(c1ccccc1-n1cnc(Cn2nc(-c3ccc(Cl)cc3)n(C[C@H](O)C(F)(F)F)c2=O)n1)N1CCSC1` [Example 334, 5-(4-Chlorophenyl)-2-({1-[2-(1,3-thiazolidin-3-ylcarbonyl)phenyl]-1H-1,2,4-triazol-3-yl}methyl)-4-[(2S)-3,3,3-trifluoro-2-hydroxypropyl]-2,4-dihydro-3H-1,2,4-triazol-3-one] were 0.00295 µM, 289.8 and 0.855 µM.
In the case of `COC[C@H]1CCCN1C(=O)c1ccccc1-n1cnc(Cn2nc(-c3ccc(Cl)cc3)n(C[C@H](O)C(F)(F)F)c2=O)n1` [Example 335, 5-(4-Chlorophenyl)-2-{[1-(2-{[(2R)-2-(methoxymethyl)pyrrolidin-1-yl]carbonyl}phenyl)-1H-1,2,4-triazol-3-yl]methyl}-4-[(2S)-3,3,3-trifluoro-2-hydroxypropyl]-2,4-dihydro-3H-1,2,4-triazol-3-one], in experiment [1], the 50% inhibitory concentration (IC50) is 0.0155 µM and the “ratio IC50 hV2/hV1a” value is given as 71.3. Besides, in experiment [2], the IC50 is 1.1 µM.
Regarding `CC1(C)CCCN1C(=O)c1ccccc1-n1cnc(Cn2nc(-c3ccc(Cl)cc3)n(C[C@H](O)C(F)(F)F)c2=O)n1` [Example 336, 5-(4-Chlorophenyl)-2-[(1-{2-[(2,2-dimethylpyrrolidin-1-yl)carbonyl]phenyl}-1H-1,2,4-triazol-3-yl)methyl]-4-[(2S)-3,3,3-trifluoro-2-hydroxypropyl]-2,4-dihydro-3H-1,2,4-triazol-3-one], in experiment [1], the IC50 was found to be 0.0028 µM and the “ratio IC50 hV2/hV1a” value was 453.6. Moreover, in experiment [2], the concentration for half-maximal inhibition (IC50) is 1.27 µM.
For `O=C(c1ccccc1-n1cnc(Cn2nc(-c3ccc(Cl)cc3)n(C[C@H](O)C(F)(F)F)c2=O)n1)N1CCCCC1` [Example 338, 5-(4-Chlorophenyl)-2-({1-[2-(piperidin-1-ylcarbonyl)phenyl]-1H-1,2,4-triazol-3-yl}methyl)-4-[(2S)-3,3,3-trifluoro-2-hydroxypropyl]-2,4-dihydro-3H-1,2,4-triazol-3-one], in experiment [1], the IC50 stood at 0.0016 µM and the “ratio IC50 hV2/hV1a” value amounted to 600.0. Further, the IC50 in experiment [2] was found to be 0.96 µM.
Take `COC[C@@H]1CCCN1C(=O)c1ccccc1-n1cnc(Cn2nc(-c3ccc(Cl)cc3)n(C[C@H](O)C(F)(F)F)c2=O)n1` [Example 339, 5-(4-Chlorophenyl)-2-{[1-(2-{[(2S)-2-(methoxymethyl)pyrrolidin-1-yl]carbonyl}phenyl)-1H-1,2,4-triazol-3-yl]methyl}-4-[(2S)-3,3,3-trifluoro-2-hydroxypropyl]-2,4-dihydro-3H-1,2,4-triazol-3-one]: the half-maximal inhibitory concentration (IC50) in experiment [1] is 0.00275 µM; in experiment [2], 3.65 µM. Further, in experiment [1], the “ratio IC50 hV2/hV1a” value worked out at 1327.3.
The like results for `O=C(NC1CC1)c1ccccc1-n1cnc(Cn2nc(-c3ccc(Cl)cc3)n(C[C@H](O)C(F)(F)F)c2=O)n1` [Example 340, 2-[3-({3-(4-Chlorophenyl)-5-oxo-4-[(2S)-3,3,3-trifluoro-2-hydroxypropyl]-4,5-dihydro-1H-1,2,4-triazol-1-yl}methyl)-1H-1,2,4-triazol-1-yl]-N-cyclopropylbenzamide] were, in that order, 0.0085 µM, 0.39 µM and 45.9.
For the molecule `CC(C)CNC(=O)c1ccccc1-n1cnc(Cn2nc(-c3ccc(Cl)cc3)n(C[C@H](O)C(F)(F)F)c2=O)n1` [Example 341, 2-[3-({3-(4-Chlorophenyl)-5-oxo-4-[(2S)-3,3,3-trifluoro-2-hydroxypropyl]-4,5-dihydro-1H-1,2,4-triazol-1-yl}methyl)-1H-1,2,4-triazol-1-yl]-N-(2-methylpropyl)benzamide], in experiment [1], the half-inhibitory concentration (IC50) stood at 0.00155 µM and the “ratio IC50 hV2/hV1a” value was 132.3. The IC50 in experiment [2] came out at 0.205 µM.
Take `O=C(NC1CCCCCC1)c1ccccc1-n1cnc(Cn2nc(-c3ccc(Cl)cc3)n(C[C@H](O)C(F)(F)F)c2=O)n1` [Example 342, 2-[3-({3-(4-Chlorophenyl)-5-oxo-4-[(2S)-3,3,3-trifluoro-2-hydroxypropyl]-4,5-dihydro-1H-1,2,4-triazol-1-yl}methyl)-1H-1,2,4-triazol-1-yl]-N-cycloheptylbenzamide]: in experiment [1], the 50% inhibitory concentration (IC50) was found to be 0.00615 µM and the “ratio IC50 hV2/hV1a” value came to 59.3. Moreover, the half-maximal inhibitory concentration (IC50) in experiment [2] stood at 0.365 µM.
Taken in the same sequence, the figures for `O=C(NC1CCCC1)c1ccccc1-n1cnc(Cn2nc(-c3ccc(Cl)cc3)n(C[C@H](O)C(F)(F)F)c2=O)n1` [Example 343, 2-[3-({3-(4-Chlorophenyl)-5-oxo-4-[(2S)-3,3,3-trifluoro-2-hydroxypropyl]-4,5-dihydro-1H-1,2,4-triazol-1-yl}methyl)-1H-1,2,4-triazol-1-yl]-N-cyclopentylbenzamide] were 0.00087 µM, 118.4 and 0.103 µM.
The like results for `CC(C)(C)NC(=O)c1ccccc1-n1cnc(Cn2nc(-c3ccc(Cl)cc3)n(C[C@H](O)C(F)(F)F)c2=O)n1` [Example 344, N-Tert-butyl-2-[3-({3-(4-chlorophenyl)-5-oxo-4-[(2S)-3,3,3-trifluoro-2-hydroxypropyl]-4,5-dihydro-1H-1,2,4-triazol-1-yl}methyl)-1H-1,2,4-triazol-1-yl]benzamide] were, in that order, 0.00093 µM, 5.0 and 0.0047 µM.
As to `CC[C@H](C)NC(=O)c1ccccc1-n1cnc(Cn2nc(-c3ccc(Cl)cc3)n(C[C@H](O)C(F)(F)F)c2=O)n1` [Example 346, N-[(2S)-Butan-2-yl]-2-[3-({3-(4-chlorophenyl)-5-oxo-4-[(2S)-3,3,3-trifluoro-2-hydroxypropyl]-4,5-dihydro-1H-1,2,4-triazol-1-yl}methyl)-1H-1,2,4-triazol-1-yl]benzamide], in experiment [1], the half-maximal inhibitory concentration (IC50) came out at 0.00175 µM and the “ratio IC50 hV2/hV1a” value came out at 67.7. In experiment [2], the IC50 is 0.119 µM.
With `CC1CCN(C(=O)c2ccccc2-n2cnc(Cn3nc(-c4ccc(Cl)cc4)n(C[C@H](O)C(F)(F)F)c3=O)n2)CC1` [Example 347, 5-(4-Chlorophenyl)-2-[(1-{2-[(4-methylpiperidin-1-yl)carbonyl]phenyl}-1H-1,2,4-triazol-3-yl)methyl]-4-[(2S)-3,3,3-trifluoro-2-hydroxypropyl]-2,4-dihydro-3H-1,2,4-triazol-3-one], in experiment [1], the IC50 worked out at 0.00755 µM and the “ratio IC50 hV2/hV1a” value was found to be 141.1. The IC50 in experiment [2] is 1.06 µM.
